The format of series [1] is in vitro ADME. As to conditions: Table 10. As for the experimental part: Test compound stock (10 mM in DMSO, 3 μL) was mixed with citrate phosphate buffered saline (597 μL) to make diluted test compound. Diluted test compound (150 μL) was transferred to a UV plate (pION Inc., Woburn, Mass.) and the UV spectrum (250 nm-500 nm) was read as the reference plate. Each well of the donor plate in a PAMPA sandwich plate (pION Inc., Woburn, Mass.) contained a filter that was painted on one side with 4 μL GIT lipid (pION Inc., Woburn, Mass.) to form a membrane. Each well in the acceptor plate in a PAMPA sandwich, preloaded with magnetic stir bars, was filled with acceptor solution buffer (200 pION Inc., Woburn, Mass.). The donor plate was filled with diluted test compound (180 The PAMPA sandwich was assembled by placing the donor plate over the acceptor plate. The combined PAMPA plate was placed on a pIon Gut-Box™, a stirring apparatus that allows equilibrium to be reached quicker. Aqueous Boundary Layer of the pIon Gut-Box™ was set to 40 μm and the compounds stirred for 30 minutes. The UV spectrum (250 nm-500 nm) of the donor and the acceptor were read. The permeability coefficient was calculated using PAMPA evolution 96 command software (pION Inc., Woburn, Mass.) based on the whole spectrum measured from the reference plate, the donor plate, and the acceptor plate. All compounds were tested in triplicates.

Series [2] is described as follows: physchem. As to conditions: aqueous buffer, kinetic from dmso stock.
Description: Solubility assays were carried out on a Biomek FX lab automation workstation (Beckman Coulter, Inc., Fullerton, Calif.) using μSOL Evolution software (pION Inc., Woburn, Mass.). […] Compound stock (10 mM in DMSO, 10 μL) was added to 1-propanol (190 μL) to make a reference stock plate. […] Test compound stock (10 mM, 6 μL) was added to buffer (594 μL) in a 96-well storage plate and mixed. […] The suspension was then filtered through a 96-well filter plate (pION Inc., Woburn, Mass.). […] Calculation was carried out by μSOL Evolution software based on the AUC (area under curve) of UV spectrum of the sample plate and the reference plate. All compounds were tested in triplicate.
Series [3] deals with DCN1-UBC12 interaction (Homo sapiens (Human), UniProt Q96GG9). In words: biochemical. Type of series: binding. As to conditions: for inhibition of the DCN1-UBC12NAc interaction: TR-FRET assay. On the technique in general: TR-FRET usually uses a lanthanide donor and a delayed reading to cut background.
Sequence of DCN1-UBC12 interaction (Q96GG9 60-248 limits assumed): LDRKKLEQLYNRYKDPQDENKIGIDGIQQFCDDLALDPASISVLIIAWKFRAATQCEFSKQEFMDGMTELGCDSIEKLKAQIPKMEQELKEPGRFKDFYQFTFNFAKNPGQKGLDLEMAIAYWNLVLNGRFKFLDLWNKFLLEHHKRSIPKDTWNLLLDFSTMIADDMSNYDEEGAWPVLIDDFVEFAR
In series [4] the test system is endosome maturation. In words: Endosome maturation (LAMP1 positive vesicles) imaging. Type of series: cell-based.
Series [5] addresses Dcn1P-mediated co-E3 activity (Homo sapiens (Human), UniProt Q96GG9). In words: Pulse-chase neddylation assay (NEDD8 transfer from UBC12 to CUL2CTD). Type of series: biochemical. As to conditions: for inhibition of labeled NEDD8 transfer from UBC12 to CUL2CTD-RBX2: pulse-chase neddylation assay.
Description: Compound inhibition of Dcn1^P-mediated co-E3 activity was monitored using pulse-chase assays to exclusively monitor effects of Nedd8 transfer to Cul2 without sensing earlier steps in the reaction. […] Load reactions were quenched by the addition of EDTA to 50 mM and incubated on ice for 5 minutes. Chase reactions involved dilution of the UBC12˜[^FAM]-Nedd8 thioester conjugate to 40 nM in 50 mM Tris, 50 mM NaCl, 50 mM EDTA, 0.5 mg/mL BSA, pH 6.8. […] Fluorescent gels were visualized by scanning on a Typhoon imager (GE).
Series [6] relates to HCC95 cells. In words: Soft agar anchorage independent growth assay. Type of series: cell-based. As to conditions: 10 μM.
Series [7] concerns HCC95 cancer cells. Briefly: Cullin neddylation in cancer cells (cell lysis and western blot). Type of series: cell-based.
Description: Cell pellets harvested from a 6 well dish were resuspended in 30-40 μL of lysis buffer (50 mM Tris, 150 mM NaCl, 0.5% NP-40, 0.1% SDS, 6.5 M Urea, 2 mM 1,10-orthophenanthroline, 1× Halt Protease and Phosphatase inhibitor cocktail (ThermoFisher), 0.25 kU Universal Nuclease (ThermoFisher), pH 7.5). Cell pellet suspensions were incubated on ice for 25 minutes with occasional mixing by pipetting up and down. Lysates were cleared by centrifugation at 13 K rpm for 20 minutes and the supernatant was removed as total cell lysate sample. Protein concentration of the cell lysate was determined by BCA assay (Pierce) using BSA as a control. Cell lysates were diluted into 2×SDS-PAGE sample buffer such that 25 μg of total protein was loaded per well. […] Primary antibodies were prepared in blocking buffer and incubated with membranes overnight at 4° C. with rocking. Membranes were extensively washed in 1×TBS, 0.1% Tween-20. Secondary antibodies were prepared in blocking buffer according to the manufactures recommendations and incubated with membranes for 1 hour at room temperature. After extensive washing the membranes were developed with SuperSignal West Pico Chemiluminescent substrate (ThermoFisher) and developed by film exposure (HyBlot CL, Denville scientific).
Series [8] deals with U-2 OS cells. Briefly: Electron microscopy of compound treated cells. Type of series: cell-based.
The mark [9] stands for this setting: Table 10, R101 series, read-out: IC50 (μM) (TR-FRET).
The mark [10] stands for this setting: Table 6, commercial compounds, read-out: TR-FRET IC50.
Setting [11] is: Table 7, commercial compounds, read-out: TR-FRET IC50.

Converted amounts (≈) assume the structure as drawn. “Also recorded” adds a separate entry of the source. Read-outs that look alike come from different tables or passages of the source. A value given as a limit tells only on which side of the number the result lay.

Sequence of Dcn1P-mediated co-E3 activity (Q96GG9 whole entry, looked up): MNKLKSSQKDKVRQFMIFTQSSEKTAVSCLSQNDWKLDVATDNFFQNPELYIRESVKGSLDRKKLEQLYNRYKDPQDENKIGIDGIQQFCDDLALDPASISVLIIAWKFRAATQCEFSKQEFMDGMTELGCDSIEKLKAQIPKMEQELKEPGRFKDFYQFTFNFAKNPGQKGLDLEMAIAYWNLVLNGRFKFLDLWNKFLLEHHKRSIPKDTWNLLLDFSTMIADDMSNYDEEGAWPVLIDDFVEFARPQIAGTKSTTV
Sequence of Dcn1P-mediated co-E3 activity (Q13617 whole entry partner, looked up): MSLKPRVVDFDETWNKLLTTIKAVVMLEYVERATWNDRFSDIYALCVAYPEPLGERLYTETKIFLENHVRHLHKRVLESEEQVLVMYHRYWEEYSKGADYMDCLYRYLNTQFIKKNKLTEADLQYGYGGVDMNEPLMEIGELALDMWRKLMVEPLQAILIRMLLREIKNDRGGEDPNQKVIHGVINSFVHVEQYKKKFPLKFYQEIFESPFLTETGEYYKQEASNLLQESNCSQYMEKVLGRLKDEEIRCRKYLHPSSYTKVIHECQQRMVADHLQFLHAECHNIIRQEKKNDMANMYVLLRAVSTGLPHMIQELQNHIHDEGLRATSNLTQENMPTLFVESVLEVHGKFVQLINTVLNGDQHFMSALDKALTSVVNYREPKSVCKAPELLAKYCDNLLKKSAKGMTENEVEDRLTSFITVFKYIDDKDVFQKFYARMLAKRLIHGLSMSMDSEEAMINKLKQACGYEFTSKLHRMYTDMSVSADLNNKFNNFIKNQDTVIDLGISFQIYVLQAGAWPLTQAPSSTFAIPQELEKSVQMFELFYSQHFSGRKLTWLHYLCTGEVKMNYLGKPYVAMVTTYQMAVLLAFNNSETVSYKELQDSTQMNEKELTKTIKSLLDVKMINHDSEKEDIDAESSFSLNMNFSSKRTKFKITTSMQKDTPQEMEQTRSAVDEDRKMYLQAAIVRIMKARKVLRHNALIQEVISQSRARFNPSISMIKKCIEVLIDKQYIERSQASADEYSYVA
Sequence of Dcn1P-mediated co-E3 activity (Q9UBF6 whole entry partner, looked up): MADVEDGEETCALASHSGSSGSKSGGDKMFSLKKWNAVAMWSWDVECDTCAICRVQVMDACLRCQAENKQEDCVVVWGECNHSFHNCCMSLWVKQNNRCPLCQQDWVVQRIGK

Consider `O=C(Nc1cccc(C(F)(F)F)c1)N(Cc1ccccc1)C1CCN(Cc2ccc(F)cc2)CC1` [compound 24], for which the “Pampa (×10^−6 cm/s)” value in series [1] is >2200 ×10^−6 cm/s. Also, the kinetic solubility in series [2] turned out to be 0.9 ± 0.1 µM (≈ 0.437 µg/mL). Besides, the concentration for half-maximal inhibition (IC50) in series [3] (setting [9]) was found to be 9.2 µM.
As for `CCOc1cc(CN2CCC(N(Cc3ccccc3)C(=O)Nc3cccc(C(F)(F)F)c3)CC2)cc(Cl)c1O` [compound 25], the “Pampa (×10^−6 cm/s)” value in series [1] is 110 ± 190 ×10^−6 cm/s. In series [2], the kinetic solubility came out at 0.4 ± 0.1 µM (≈ 0.225 µg/mL).
Regarding `O=C(Nc1cccc(C(F)(F)F)c1)N(Cc1ccccc1)C1CCN(Cc2ccc3c(c2)OCCO3)CC1` [compound 27], in series [1], the “Pampa (×10^−6 cm/s)” value is >2200 ×10^−6 cm/s. Further, in series [2], the kinetic solubility amounted to 1 ± 1.3 µM (≈ 0.526 µg/mL). The half-maximal inhibitory concentration (IC50) in series [3] (setting [9]) came out at 7.3 µM.
Take `CCCCN1CCC(N(Cc2ccc3c(c2)OCO3)C(=O)Nc2cc(F)cc(C(F)(F)F)c2)CC1` [A83]: the IC50 in series [3] (read-out: TR-FRET IC50) amounted to 0.901 µM. In addition, the “effect on endosome maturation” value in series [4] (3 μM on cells) is reported as “affect endosome maturation”.
On to `Cc1cccc(C(=O)NC2C(=O)Nc3c(c(C)nn3-c3ccccc3)C2c2ccc(F)cc2)c1` (stereo not shown) [F1], for which the “inhibition of labeled NEDD8 transfer from UBC12 to CUL2CTD-RBX2” value (“inhibition of labeled NEDD8 transfer” for short) in series [5] is listed as “dose-dependent inhibition”.
In the case of `O=C(Nc1cccc(C(F)(F)F)c1)N(Cc1ccccc1)C1CCN(Cc2cccnc2)CC1` [compound 23], in series [1], the “Pampa (×10^−6 cm/s)” value is >2200 ×10^−6 cm/s. For the same molecule, the solubility (kinetic) in series [2] was 30 ± 1.1 µM (≈ 14.1 µg/mL). Further, in series [3] (setting [9]), the half-maximal inhibitory concentration (IC50) is 12 µM.
Regarding `CCCN1CCN(C(=O)c2cnn(-c3nccc(-c4cccs4)n3)c2C(C)C)CC1` [E1, (5-Isopropyl-1-(4-(Thiophen-2-yl)Pyrimidin-2-yl)-1H-Pyrazol-4-yl)(4-Propylpiperazin-1-yl)Methanone], the “inhibition of the DCN1-UBC12NAc interaction” value in series [3] was “dose-dependent inhibition”. Also, the concentration for half-maximal inhibition (IC50) in series [3] (setting [10]) came out at 1.07 µM. Besides, in series [5], the “inhibition of labeled NEDD8 transfer” value is “dose-dependent inhibition”.
`O=C(Nc1cccc(C(F)(F)F)c1)N(Cc1ccccc1)C1CCN(Cc2ccc3c(c2)OCO3)CC1` [compound 26]: the “Pampa (×10^−6 cm/s)” value in series [1] is on record as >2200 ×10^−6 cm/s. Besides, the kinetic solubility in series [2] is less than 0.1 µM. For the same molecule, the IC50 in series [3] (setting [9]) was found to be 7 µM.
As to `C=CC(=O)Nc1cccc(CN(C(=O)Nc2cccc(C(F)(F)F)c2)C2CCN(C(C)CCC)CC2)c1` (stereo not shown) [A18], the half-maximal inhibitory concentration (IC50) in series [3] (read-out: TR-FRET IC50) was 0.111 µM. For the same molecule, the anchorage independent growth result in series [6] was “inhibit the anchorage independent growth of HCC95 cells”. Further, in series [7], the “levels of neddylated Cullins / cullin neddylation” value was “reduce the levels of neddylated Cullins; also recorded: selectively inhibit cullin neddylation”.
In the case of `C=CC(=O)NCc1cccc(CN(C(=O)Nc2cccc(C(F)(F)F)c2)C2CCN(C(C)CCC)CC2)c1` (stereo not shown) [A3], the “vacuolar structures by electron microscopy” value in series [8] was “presence of large vacuolar structures”. Further, the IC50 in series [3] (read-out: TR-FRET IC50) is 0.018 µM.
Regarding `CCCC(C)N1CCC(N(Cc2ccccc2)C(=O)Nc2cccc(C(F)(F)F)c2)CC1` (stereo not shown) [A15, 1-Benzyl-1-(1-(Pentan-2-yl)Piperidin-4-yl)-3-(3-(Trifluoromethyl)Phenyl)Urea], in series [8], the “vacuolar structures by electron microscopy” value is on record as “presence of large vacuolar structures”. In series [4] (10 μM on cells), the “effect on endosome maturation” value is “affect endosome maturation”.
As for `O=C(Nc1cccc(C(F)(F)F)c1)NC1CCN(Cc2ccccc2)CC1` [B7, 1-(1-Benzylpiperidin-4-yl)-3-(3-(Trifluoromethyl)Phenyl)Urea], in series [3], the “inhibition of the DCN1-UBC12NAc interaction” value is reported as “dose-dependent inhibition”. Further, the “inhibition of DCN1 dependent neddylation” value in series [5] (dependence on presence of DCN1) is reported as “specifically inhibits DCN1 dependent nedylation”. The “inhibition of labeled NEDD8 transfer” value in series [5] is given as “dose-dependent inhibition”.
`CCCC(C)N1CCC(N(Cc2ccccc2)C(=O)Nc2ccc(F)c(C(F)(F)F)c2)CC1` (stereo not shown) [A57] displayed a half-maximal inhibitory concentration (IC50) in series [3] (TR-FRET IC50) of 0.315 µM.
In the case of `Cc1ccc(CN(C(=O)Nc2ccccc2F)C2CCN(Cc3ccccc3)CC2)o1` [B94], the IC50 in series [3] (read-out: TR-FRET IC50) is greater than 67.6 µM.
For `CCOc1ccc(C2c3c(C)nn(C)c3NC(=O)C2NC(=O)c2ccc(Cl)cc2)cc1OC` (stereo not shown) [F25], in series [3] (setting [11]), the 50% inhibitory concentration (IC50) was greater than 67.6 µM.
For the molecule `CCCC(C)N1CCC(N(Cc2ccccc2)C(=O)Nc2cccc([N+](=O)[O-])c2C)CC1` (stereo not shown) [A161], the half-inhibitory concentration (IC50) in series [3] (read-out: TR-FRET IC50) was 7.94 µM.
Consider `COc1ccc(C2c3c(C)nn(C)c3NC(=O)C2NC(=O)c2cccc(C)c2)cc1OC` (stereo not shown) [F14], for which, in series [3] (setting [11]), the IC50 is greater than 67.6 µM.
For `CCCC(C)N1CCC(N(Cc2cccc(CNC(=O)CCl)c2)C(=O)Nc2cccc(C(F)(F)F)c2)CC1` (stereo not shown) [drawing 847], the IC50 in series [3] (read-out: TR-FRET IC50) is less than 0.01 µM.
For the molecule `O=C(NCc1cccc(C(F)(F)F)c1)C1CCN(Cc2ccccc2)CC1` [B41], the IC50 in series [3] (read-out: TR-FRET IC50) is greater than 63.9 µM.
Regarding `O=C(Nc1cccc(C(F)(F)F)c1)N(Cc1ccccc1)C1CCNCC1` [A261, 1-Benzyl-1-(Piperidin-4-yl)-3-(3-(Trifluoromethyl)Phenyl)Urea], the 50% inhibitory concentration (IC50) in series [3] (read-out: TR-FRET IC50) is greater than 63.3 µM.
Take `CCN(CC)CCN(CC)C(=O)c1cnn(-c2ncc(C)c(-c3cccs3)n2)c1C1CC1` [E18]: in series [3] (setting [10]), the 50% inhibitory concentration (IC50) was determined as 38.1 µM.
Turning to `CCCC(C)N1CCC(N(Cc2ccccc2)C(=O)Nc2ccc(OC)c(F)c2)CC1` (stereo not shown) [A109], the half-maximal inhibitory concentration (IC50) in series [3] (read-out: TR-FRET IC50) was 2.2 µM.
For `CCCC(C)N1CCC(N(Cc2cccc(NC(=O)CCl)c2)C(=O)Nc2cccc(C(F)(F)F)c2)CC1` (stereo not shown) [A17], in series [3] (read-out: TR-FRET IC50), the IC50 is 0.0951 µM.
Same read-out and setting: under `O=C(Nc1cc(F)cc(C(F)(F)F)c1)N(Cc1ccccc1)C1CCN(Cc2cccc(N3CCCC3)c2)CC1` [A202] stands greater than 19.4 µM; under `O=C(Nc1cccc(C(F)(F)F)c1)NC1CCN(Cc2cccc(F)c2)CC1` [A183, 1-(1-(3-Fluorobenzyl)Piperidin-4-yl)-3-(3-(Trifluoromethyl)Phenyl)Urea], 21.9 µM; under `CCCCN1CCC(N(Cc2ccccc2)C(=O)Nc2cncc(C(F)(F)F)c2)CC1` [A262], greater than 63.4 µM.
As to “1-Benzyl-1-(1-(Propylsulfonyl)Piperidin-4-yl)-3-(3-(Trifluoromethyl)Phenyl)Urea [A79]”, the half-inhibitory concentration (IC50) in series [3] (read-out: TR-FRET IC50) was found to be 0.81 µM.
Same read-out and setting: in the case of `O=C(Nc1cc(F)cc(C(F)(F)F)c1)N(Cc1ccccc1)C1CCN(Cc2cncn2Cc2ccccc2)CC1` [A208] it was greater than 21.1 µM; in that of `CC(CCN1CCC(N(Cc2ccccc2)C(=O)Nc2cc(F)cc(C(F)(F)F)c2)CC1)c1ccccc1` (stereo not shown) [A127], 2.23 µM.
Same read-out and setting: under `O=C(Nc1ccccc1C(F)(F)F)NC1CCN(Cc2ccccc2)CC1` [B103] stands greater than 70.7 µM.
In the case of `CC(=O)Nc1ccc(NC(=O)C2CCN(C(=O)c3cccs3)CC2)cc1` [C35], the half-inhibitory concentration (IC50) in series [3] (Table 4, commercial compounds, read-out: TR-FRET IC50) is greater than 67.6 µM.

A word on the solubility (kinetic): it is the concentration staying in solution when a stock, usually in DMSO, is diluted into the medium. The IC50 is the concentration that gives 50% inhibition.

(Values after patent publication US11116757B2 (priority 2015, dated 2021).)
